Columns and labels:
[1] = injectable solution of 0.15 g/mL with sodium phosphate dodecahydrate 1.21%, packaged in an ampoule; cited from earlier work
[2] = system: dystrophic calcification; conditions: cited from earlier work
[3] = system: ossifications (ankle region and popliteal fossa area); experiment: Topical treatment of a child with progressive osseous heteroplasia (Example 3); type: in vivo, human; conditions: before the topical treatment; given with non steroidal anti-inflammatory medications
Procedure: A child, weighing 27 kg, suffering from progressive osseous heteroplasia presented with significant ossifications that were responsible for a limitation of function in the right foot: in the ankle region, with an estimated surface area of 10 cm×5 cm, and in the popliteal fossa area with 2 patches, having an estimated surface area of 6 cm×4 cm each.
These exploratory tests were carried out in addition to the usual checkup including the exploration of renal function and liver function, as well as calcium and phosphate checkup.

O=S([O-])([O-])=S.[Na+].[Na+] [sodium thiosulfate]
stability [1]: 3 years
superficial calcifications ([2]; after six months, 10% compresses twice a week, with topical corticosteroid, acetic acid compresses and oral antibiotics): dissolved
pains ([2]; after six months, 10% compresses, combined treatment): progressively abated
re-epithelialisation over the wound regions ([2]; three months later (after the first six months)): almost complete re-epithelialisation

CC(O)(P(=O)(O)O)P(=O)(O)O [disodium etidronate]
improvement under earlier treatment [3]: No improvement

Source: patent US9629872B2, “Sodium thiosulphate for the treatment of ectopic calcifications” (Institut National de la Sante et de la Recherche Medicale …, priority 2012, dated 2017)
